Data: patent publication US9718825B2, “N-(4-(azaindazol-6-yl)-phenyl)-sulfonamides and their use as pharmaceuticals” (priority 2013, dated 2017)
Where two headings read alike, the source gives them in different places.

What was measured:
[1] = system: SGK-1 dependent phosphorylation of GSK3beta in U2OS cells; experiment: SGK-1 dependent phosphorylation of GSK3beta in U2OS cells overexpressing recombinant SGK-1 and GSK3beta; type: cell-based, human; conditions: U2OS cells, 6 h incubation, ratio of phosphorylated GSK3beta to total GSK3beta, read-out: IC50 values for inhibition of SGK-1 dependent phosphorylation of GSK3beta in U2OS cells
Protocol: B) Determination of the Effect on SGK-1 Dependent Phosphorylation of GSK3beta in U2OS Cells
U2OS cells were cultured in 1:1 Dulbecco modified Eagle medium/Ham's F12 and 10% heat-inactivated fetal calf serum (FCS Gold) at 37° C., 7% CO2 and 95% relative humidity. […] Cell suspension mixed with BacMam viruses was seeded in 96 well pCLEAR plates (Greiner) at 3×10^4 cells per well in 250 μl medium. […] 1 μl of a solution of the test compound at 250×final concentration was added. Cells are incubated at 37° C., 7% CO2 and 95% relative humidity. […] After removing the fixation solution, cells were permeabilised by adding 200 μl PBT (0.2% Triton X-100 in PBS) per well for 5 min. After removing PBT, cells were blocked by adding 200 μl of blocking solution (1% bovine serum albumine in PBS) per well. Blocking solution was removed and 50 μl of primary antibody (rabbit anti-phospho-GSK-3beta (Ser9), and mouse anti-GSK-3beta) were added for 1 h. […] After washing the cells 3 times with PBS, 200 μl of PBS were added. Fluorescence signals were measured with the ImageXpress MICRO (Molecular Devices).

[2] = biological target: recombinant human SGK-1 enzyme (Homo sapiens, UniProt O00141); experiment: Enzymatic activity assay: SGK-1 substrate peptide phosphorylation (Caliper lab-chip mobility shift); type: biochemical
Protocol: In one of the cellular assays, the SGK-1 dependent phosphorylation of glycogen synthase kinase 3beta (GSK3beta) in U2OS cells was measured, in another one, a functional electrophysiological assay, the SGK-1 dependent activation of epithelial Na^+ channel (ENaC) currents in A6 cell monolayers, and in another one chondrocyte hypertrophic differentiation in mouse chondrogenic ATDC5 cells.
A) Enzymatic Activity Assay
For the determination of the compound dose response, a 10 mM DMSO stock solution was diluted and tested in a ten-point, three-fold dilution series run in duplicate beginning at 30 μM final concentration. Data were analyzed using a four-parameter curve fit with a fixed minimum and maximum experimentally defined as the average positive and negative controls on each plate.

[3] = peptide substrate 1 μM, ATP 10 μM, 60 min at 37° C., read-out: IC50 values for inhibition of SGK-1 enzymatic activity

Chain of recombinant human SGK-1 enzyme (O00141 whole entry, looked up): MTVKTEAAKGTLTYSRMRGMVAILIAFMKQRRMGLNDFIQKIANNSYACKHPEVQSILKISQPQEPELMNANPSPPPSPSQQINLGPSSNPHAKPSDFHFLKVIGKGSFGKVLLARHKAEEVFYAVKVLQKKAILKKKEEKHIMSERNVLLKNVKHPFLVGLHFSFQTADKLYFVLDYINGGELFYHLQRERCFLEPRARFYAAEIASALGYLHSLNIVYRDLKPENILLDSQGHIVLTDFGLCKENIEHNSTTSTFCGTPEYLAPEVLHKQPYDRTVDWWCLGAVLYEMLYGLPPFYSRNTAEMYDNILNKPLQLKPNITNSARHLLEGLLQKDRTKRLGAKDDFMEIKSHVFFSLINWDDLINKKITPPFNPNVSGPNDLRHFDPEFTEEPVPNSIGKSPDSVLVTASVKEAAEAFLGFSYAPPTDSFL

SMILES	IC50 ([1]; Homo sapiens) [nM]	other results
O=S(=O)(Nc1ccc(-c2nc(O[C@@H]3CCCC[C@@H]3O)c3cn[nH]c3n2)cc1)c1cc(Cl)ccc1F (racemic) [Example 81]	–	IC50 [1]: 1700 nM; IC50 [2, 3]: 11 nM
Cc1n[nH]c2nc(-c3ccc(NS(=O)(=O)c4cc(Cl)ccc4Cl)cc3)ncc12 [Example 1, 2,5-Dichloro-N-[4-(3-methyl-1H-pyrazolo[3,4-d]pyrimidin-6-yl)-phenyl]-benzenesulfonamide]	830	IC50 ([2]; read-out: IC50 values for inhibition of SGK-1 enzymatic activity, peptide substrate 1 μM, ATP 10 μM, 60 min at 37° C.): < 1.2 nM
Cc1n[nH]c2nc(-c3ccc(NS(=O)(=O)c4cc(Cl)ccc4F)cc3)ncc12 [Example 10]	–	IC50 [1]: 430 nM; IC50 [2, 3]: < 1.2 nM
O=S(=O)(Nc1ccc(-c2nc(N3CCNCC3)c3cn[nH]c3n2)cc1)c1cccc(Cl)c1Cl [Example 15]	–	IC50 [1]: 870 nM; IC50 [2, 3]: < 1.2 nM
O=S(=O)(Nc1ccc(-c2nc(N3CCNCC3)c3cn[nH]c3n2)cc1)c1cc(Cl)ccc1F [Example 16]	–	IC50 [1]: 950 nM; IC50 [2, 3]: < 1.2 nM
CC(C)Oc1nc(-c2ccc(NS(=O)(=O)c3cc(Cl)ccc3F)c(F)c2)nc2[nH]nc(N)c12 [Example 444, N-[4-(3-Amino-4-isopropoxy-1H-pyrazolo[3,4-d]pyrimidin-6-yl)-2-fluoro-phenyl]-5-chloro-2-fluoro-benzenesulfonamide]	50	–
Nc1n[nH]c2nc(-c3ccc(NS(=O)(=O)c4cc(Cl)c(F)cc4F)cc3)ncc12 [Example 445, N-[4-(3-Amino-1H-pyrazolo[3,4-d]pyrimidin-6-yl)-phenyl]-5-chloro-2,4-difluoro-benzenesulfonamide]	340	–

Further lines, with some results ahead:

IC50 ([1]; Homo sapiens) [nM]	SMILES	other results
4900	Cc1n[nH]c2nc(-c3ccc(NS(=O)(=O)c4cc(Cl)c(F)cc4F)cc3)ncc12 [Example 449, 5-Chloro-2,4-difluoro-N-[4-(3-methyl-1H-pyrazolo[3,4-d]pyrimidin-6-yl)-phenyl]-benzenesulfonamide]	–
1800	COc1ccc(Cl)c(S(=O)(=O)Nc2ccc(-c3ncc4c(C)n[nH]c4n3)cc2F)c1 [Example 533, 2-Chloro-N-[2-fluoro-4-(3-methyl-1H-pyrazolo[3,4-d]pyrimidin-6-yl)-phenyl]-5-methoxy-benzenesulfonamide]	–
3100	Cc1nc(-c2ccc(NS(=O)(=O)c3cc(Cl)ccc3Cl)cc2)nc2[nH]nc(NC(=O)C3CC(O)C3)c12 (centres unmarked) [Example 536, 3-Hydroxy-cyclobutanecarboxylic acid {6-[4-(2,5-dichloro-benzenesulfonylamino)-phenyl]-4-methyl-1H-pyrazolo[3,4-d]pyrimidin-3-yl}-amide]	–
73	Cc1nc(-c2ccc(NS(=O)(=O)c3cc(Cl)ccc3Cl)cc2)nc2[nH]nc(NC(=O)C3CCOCC3)c12 [Example 545, N-[6-[4-[(2,5-Dichlorophenyl)sulfonylamino]phenyl]-4-methyl-1H-pyrazolo[3,4-d]pyrimidin-3-yl]tetrahydropyran-4-carboxamide]	–
1100	O=C(Nc1n[nH]c2nc(-c3ccc(NS(=O)(=O)c4cc(Cl)ccc4Cl)cc3)ncc12)C1CCNCC1 [Example 546, N-[6-[4-[(2,5-Dichlorophenyl)sulfonylamino]phenyl]-1H-pyrazolo[3,4-d]pyrimidin-3-yl]piperidine-4-carboxamide]	–
4000	Cc1nc(-c2ccc(NS(=O)(=O)c3cc(Cl)ccc3Cl)cc2)nc2[nH]nc(NCC3CCOCC3)c12 [Example 547, 2,5-Dichloro-N-(4-{4-methyl-3-[(tetrahydro-pyran-4-ylmethyl)-amino]-1H-pyrazolo[3,4-d]pyrimidin-6-yl}-phenyl)-benzenesulfonamide]	–
6400	Cc1ccc(C#N)c(S(=O)(=O)Nc2ccc(-c3cc4[nH]nc(N)c4cn3)cc2)c1 [Example 553, N-[4-(3-Amino-1H-pyrazolo[4,3-c]pyridin-6-yl)phenyl]-2-cyano-5-methyl-benzenesulfonamide]	–
170	Nc1n[nH]c2nc(-c3ccc(NS(=O)(=O)c4cc(Cl)ccc4F)cc3)nc(C(F)(F)F)c12 [Example 568, N-[4-(3-Amino-4-trifluoromethyl-1H-pyrazolo[3,4-d]pyrimidin-6-yl)-phenyl]-5-chloro-2-fluoro-benzenesulfonamide]	–
